Among the data in patent US9694016B2 (Novartis AG, priority 2013, dated 2017) are IC50 values, retold here.

Structures are written as SMILES.

The target of the first assay is b-Raf (V600E) (Homo sapiens (Human), UniProt P15056, V600E). Conditions: read-out: b-Raf IC-50; AlphaScreen, 60 min pre-incubation, 3 hours reaction.
b-Raf (V600E), sequence (P15056 whole entry V600E): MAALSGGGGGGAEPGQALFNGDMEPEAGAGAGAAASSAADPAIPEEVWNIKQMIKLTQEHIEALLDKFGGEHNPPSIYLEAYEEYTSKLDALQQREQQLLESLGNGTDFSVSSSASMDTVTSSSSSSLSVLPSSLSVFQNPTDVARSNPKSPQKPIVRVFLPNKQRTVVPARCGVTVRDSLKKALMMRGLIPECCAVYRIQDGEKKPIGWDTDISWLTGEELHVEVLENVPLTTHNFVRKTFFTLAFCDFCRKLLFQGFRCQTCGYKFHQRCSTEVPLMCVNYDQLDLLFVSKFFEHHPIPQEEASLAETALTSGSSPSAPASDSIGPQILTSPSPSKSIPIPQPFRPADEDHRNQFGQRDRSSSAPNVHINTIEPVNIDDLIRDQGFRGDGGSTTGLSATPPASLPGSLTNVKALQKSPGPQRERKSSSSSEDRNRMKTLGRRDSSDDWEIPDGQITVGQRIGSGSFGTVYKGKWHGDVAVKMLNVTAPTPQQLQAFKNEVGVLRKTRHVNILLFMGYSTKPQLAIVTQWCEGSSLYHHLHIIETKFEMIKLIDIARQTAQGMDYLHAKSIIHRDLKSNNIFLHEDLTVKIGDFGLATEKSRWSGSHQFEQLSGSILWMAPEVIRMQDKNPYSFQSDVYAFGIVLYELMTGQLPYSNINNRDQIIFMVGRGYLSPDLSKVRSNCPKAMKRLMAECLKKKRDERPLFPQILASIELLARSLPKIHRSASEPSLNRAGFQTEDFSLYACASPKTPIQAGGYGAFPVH
For the molecule `Cc1ccc(NC(=O)c2ccnc(C(C)(C)C)c2)cc1-c1cc(N2CCOCC2)c2nccn2n1` [Example 845, 2-(tert-butyl)-N-(4-methyl-3-(8-morpholinoimidazo[1,2-b]pyridazin-6-yl)phenyl)isonicotinamide], the IC50 was found to be 0.9 nM.

Take `Cc1ccc(NC(=O)c2ccnc(C(C)(C)C#N)c2)cc1-c1cc(N2CCOCC2)nc(NC2(CO)CCOCC2)n1` [Example 754, 2-(2-cyanopropan-2-yl)-N-(3-(2-((4-(hydroxymethyl)tetrahydro-2H-pyran-4-yl)amino)-6-morpholinopyrimidin-4-yl)-4-methylphenyl)isonicotinamide]: the IC50 amounted to 3.4 nM.

As to `Cc1ncc(NC(=O)c2ccnc(C3(C#N)CC3)c2)cc1-c1cc(N2CCOCC2)n2nccc2n1` [Example 802, 2-(1-cyanocyclopropyl)-N-(6-methyl-5-(7-morpholinopyrazolo[1,5-a]pyrimidin-5-yl)pyridin-3-yl)isonicotinamide], the IC50 was determined as 3.1 nM.

For the molecule `Cc1ccc(NC(=O)c2ccnc(C(F)(F)F)c2)cc1-c1cc(N2CCOCC2)c(=O)n(C)n1` [Example 658, N-(4-methyl-3-(1-methyl-5-morpholino-6-oxo-1,6-dihydropyridazin-3-yl)phenyl)-2-(trifluoromethyl)isonicotinamide], the IC50 stood at 3.1 nM.

In the case of `CCOc1nc(-c2cc(NC(=O)c3ccnc(C(F)(F)F)c3)ccc2C)cc(N2CCOCC2)n1` [Example 762, N-(3-(2-ethoxy-6-morpholinopyrimidin-4-yl)-4-methylphenyl)-2-(trifluoromethyl)isonicotinamide], the IC50 amounted to 0.7 nM.

On to `Cc1ccc(NC(=O)c2ccnc(C(C)(C)C)c2)cc1-c1cc(N2CCOCC2)n(C)c(=O)c1` [Example 472, 2-(tert-butyl)-N-(4-methyl-3-(1-methyl-6-morpholino-2-oxo-1,2-dihydropyridin-4-yl)phenyl)isonicotinamide], for which the IC50 was 2.1 nM.

`Cc1ccc(NC(=O)c2ccc(C(O)CO)c(C(F)(F)F)c2)cc1-c1cc(N2CCOCC2)c(=O)n(C)c1` (stereo not shown) [Example 460, 4-(1,2-dihydroxyethyl)-N-(4-methyl-3-(1-methyl-5-morpholino-6-oxo-1,6-dihydropyridin-3-yl)phenyl)-3-(trifluoromethyl)benzamide]: the IC50 is 15.9 nM.

For the molecule `CCOc1nnc(-c2cc(NC(=O)c3ccnc(C(C)C)c3)cnc2C)cc1N1CCOCC1` [Example 621, N-(5-(6-ethoxy-5-morpholinopyridazin-3-yl)-6-methylpyridin-3-yl)-2-isopropylisonicotinamide], the IC50 was determined as 2.6 nM.

Turning to `Cc1ncc(NC(=O)c2ccnc(C(C)(F)F)c2)cc1-c1cc(N2CCOCC2)c(OC2CCOCC2)nn1` [Example 628, 2-(1,1-difluoroethyl)-N-(6-methyl-5-(5-morpholino-6-((tetrahydro-2H-pyran-4-yl)oxy)pyridazin-3-yl)pyridin-3-yl)isonicotinamide], the IC50 amounted to 1.8 nM.

With `Cc1ncc(NC(=O)c2ccnc(C(C)(C)C#N)c2)cc1-c1cc(N2CCOCC2)nc(NC[C@@H](C)O)n1` [Example 742, (R)-2-(2-cyanopropan-2-yl)-N-(5-(2-((2-hydroxypropyl)amino)-6-morpholinopyrimidin-4-yl)-6-methylpyridin-3-yl)isonicotinamide], the IC50 stood at 38.6 nM.

For `Cc1ncc(NC(=O)c2cccc(C(F)F)c2)cc1-c1cc(N2CCOCC2)n2nccc2n1` [Example 804, 3-(difluoromethyl)-N-(6-methyl-5-(7-morpholinopyrazolo[1,5-a]pyrimidin-5-yl)pyridin-3-yl)benzamide], the IC50 stood at 0.8 nM.

Consider `Cc1ccc(NC(=O)c2ccnc(C(C)(F)F)c2)cc1-c1cc(N2CCOC[C@@H]2C)c(=O)n(C)n1` [Example 664, (S)-2-(1,1-difluoroethyl)-N-(4-methyl-3-(1-methyl-5-(3-methylmorpholino)-6-oxo-1,6-dihydropyridazin-3-yl)phenyl)isonicotinamide], for which the IC50 came out at 2.9 nM.

For `CCOc1nnc(-c2cc(NC(=O)c3ccnc(C4CC4)c3)ccc2C)cc1N1CCOCC1` [Example 563, 2-cyclopropyl-N-(3-(6-ethoxy-5-morpholinopyridazin-3-yl)-4-methylphenyl)isonicotinamide], the IC50 was determined as 0.6 nM.

For the molecule `Cc1ccc(NC(=O)c2ccnc(C(C)(C)F)c2)cc1-c1cc(N2CCOCC2)c(OC2CCOCC2)nn1` [Example 578, 2-(2-fluoropropan-2-yl)-N-(4-methyl-3-(5-morpholino-6-((tetrahydro-2H-pyran-4-yl)oxy)pyridazin-3-yl)phenyl)isonicotinamide], the IC50 was determined as 0.8 nM.

Take `Cc1ccc(NC(=O)c2ccnc(C(C)(C)C#N)c2)cc1-c1cc(N2C3CCC2COC3)c(=O)n(C)n1` [Example 669, N-(3-(5-(3-oxa-8-azabicyclo[3.2.1]octan-8-yl)-1-methyl-6-oxo-1,6-dihydropyridazin-3-yl)-4-methylphenyl)-2-(2-cyanopropan-2-yl)isonicotinamide]: the IC50 is 10 nM.

The assay is the same for the next values; noted with them: read-out: b-Raf IC-50; AlphaScreen, 60 min pre-incubation, reaction 3 hours at room temperature.
For the molecule `CCC(F)(F)c1cc(C(=O)Nc2cnc(C)c(-c3cc(NCCO)nc(N4CCOCC4)c3)c2)ccn1` [Example 1058, 2-(1,1-difluoropropyl)-N-(2′-((2-hydroxyethyl)amino)-2-methyl-6′-morpholino-[3,4′-bipyridin]-5-yl)isonicotinamide], the IC50 was determined as 10.8 nM.

For the molecule `Cc1ccc(NC(=O)c2ccnc(C(C)(F)F)c2)cc1-c1cc(N2CCOCC2)nc(N2CC(O)C2)c1` [Example 1078, 2-(1,1-difluoroethyl)-N-(3-(2-(3-hydroxyazetidin-1-yl)-6-morpholinopyridin-4-yl)-4-methylphenyl)isonicotinamide], the IC50 is 0.67 nM.

In the case of `Cc1ncc(NC(=O)c2ccc(C(O)CO)c(C(F)(F)F)c2)cc1-c1cc(N2CCOCC2)c2nccn2n1` (stereo not shown) [Example 873, 4-(1,2-dihydroxyethyl)-N-(6-methyl-5-(8-morpholinoimidazo[1,2-b]pyridazin-6-yl)pyridin-3-yl)-3-(trifluoromethyl)benzamide], the IC50 stood at 2.8 nM.

For the molecule `Cc1ncc(NC(=O)c2cc(C(C)(C)C#N)ccn2)cc1-c1cnc(OC(F)F)c(N2CCOCC2)c1` [Example 981, 4-(2-cyanopropan-2-yl)-N-(6′-(difluoromethoxy)-2-methyl-5′-morpholino-[3,3′-bipyridin]-5-yl)picolinamide], the IC50 stood at 7.65 nM.

On to `Cc1ncc(NC(=O)c2ccnc(C(C)(F)F)c2)cc1-c1cc(N2CCOCC2)nc(N2CC(C)(O)C2)c1` [Example 1105, 2-(1,1-difluoroethyl)-N-(2′-(3-hydroxy-3-methylazetidin-1-yl)-2-methyl-6′-morpholino-[3,4′-bipyridin]-5-yl)isonicotinamide], for which the IC50 is 5.62 nM.

Regarding `Cc1ncc(NC(=O)c2ccnc(S(C)(=O)=O)c2)cc1-c1cc(N2CCOCC2)nc(N2CCOCC2)c1` [Example 1124, N-(2-methyl-2′,6′-dimorpholino-[3,4′-bipyridin]-5-yl)-2-(methylsulfonyl)isonicotinamide], the IC50 was found to be 12.1 nM.

Turning to `Cc1ncc(NC(=O)c2cccc(C(F)(F)F)c2)cc1-c1cc(N2CCOCC2)nc(N2CC(O)C2)c1` [Example 1094, N-(2′-(3-hydroxyazetidin-1-yl)-2-methyl-6′-morpholino-[3,4′-bipyridin]-5-yl)-3-(trifluoromethyl)benzamide], the IC50 worked out at 3.84 nM.

With `Cc1ncc(NC(=O)c2ccnc(C(C)C)c2)cc1-c1ccnc(N2CCOCC2)c1` [Example 1136, 2-isopropyl-N-(2-methyl-2′-morpholino-[3,4′-bipyridin]-5-yl)isonicotinamide], the IC50 stood at 5.03 nM.

As for `Cc1ncc(NC(=O)c2ccnc(C(F)F)c2)cc1-c1cc(N2CCOCC2)nc(N2CC(C)(O)C2)c1` [Example 1103, 2-(difluoromethyl)-N-(2′-(3-hydroxy-3-methylazetidin-1-yl)-2-methyl-6′-morpholino-[3,4′-bipyridin]-5-yl)isonicotinamide], the IC50 amounted to 6.7 nM.

Staying with this assay, now noted: read-out: b-Raf IC-50; Table 2; AlphaScreen, 3 hours reaction.
On to `Cc1ncc(NC(=O)c2cccc(C(C)(C)C#N)c2)cc1-c1cc(N2CCOCC2)c(=O)n(C)c1` [Example 389, 3-(2-cyanopropan-2-yl)-N-(1′,2-dimethyl-5′-morpholino-6′-oxo-1′,6′-dihydro-[3,3′-bipyridin]-5-yl)benzamide], for which the IC50 came to 64.2 nM.

`Cc1ccc(NC(=O)c2ccnnc2)cc1-c1ccnc(N2CCOCC2)c1` [Example 72, N-(4-methyl-3-(2-morpholinopyridin-4-yl)phenyl)pyridazine-4-carboxamide]: the IC50 was 600 nM.

On to `Cn1cc(-c2cc(NC(=O)c3ccnc(C(F)(F)F)c3)ccc2Cl)cc(N2CCOCC2)c1=O` [Example 413, N-(4-chloro-3-(1-methyl-5-morpholino-6-oxo-1,6-dihydropyridin-3-yl)phenyl)-2-(trifluoromethyl)isonicotinamide], for which the IC50 came out at 0.4 nM.

For `Cn1cc(-c2cc(NC(=O)c3cccc(C(F)(F)F)c3)ccc2C#N)cc(N2CCOCC2)c1=O` [Example 411, N-(4-cyano-3-(1-methyl-5-morpholino-6-oxo-1,6-dihydropyridin-3-yl)phenyl)-3-(trifluoromethyl)benzamide], the IC50 was 3100 nM.

For the molecule `Cc1ncc(NC(=O)c2cccc(C(F)(F)F)c2)cc1-c1cnc(OC2CCCC(O)C2)c(N2CCOCC2)c1` (single isomer, unassigned) [Example 320, N-(6′-((3-hydroxycyclohexyl)oxy)-2-methyl-5′-morpholino-[3,3′-bipyridin]-5-yl)-3-(trifluoromethyl)benzamide], the IC50 came out at 1.7 nM.

Take `Cc1ccc(NC(=O)c2cccc(C3(C#N)CC3)c2Cl)cc1-c1cc(N2CCOCC2)c(=O)n(C)c1` [Example 346, 2-chloro-3-(1-cyanocyclopropyl)-N-(4-methyl-3-(1-methyl-5-morpholino-6-oxo-1,6-dihydropyridin-3-yl)phenyl)benzamide]: the IC50 was determined as 8.7 nM.

Take `Cc1ncc(NC(=O)c2cccc(C(F)(F)F)c2)cc1-c1cnc(O[C@H]2CC[C@@H](O)CC2)c(N2CCOCC2)c1` [Example 317, N-(6′-(((1s,4s)-4-hydroxycyclohexyl)oxy)-2-methyl-5′-morpholino-[3,3′-bipyridin]-5-yl)-3-(trifluoromethyl)benzamide]: the IC50 is 1.6 nM.
